Data from patent publication US11512053B2, “Arginine methyltransferase inhibitors and uses thereof” (priority 2013, dated 2022).
Structures can show the parent of a compound that is named as a salt. Where two headings read alike, the source gives them in different places.

Key:
[1] = molecular target: full-length human PRMT8 isoform 1 (Homo sapiens, UniProt Q9NR22); assay: PRMT8 Biochemical Assay (3H-SAM Flashplate, peptide substrate); settings: read-out: Biochemical IC50 PRMT8
Summary of the method: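 Scintillation Flashplate capture of biotinylated histone H4 (31-45) peptide (150 nM) methylated by 1.5 nM PRMT8 using 3H-SAM (50 nM) with unlabelled SAM (550 nM); enzyme and compound preincubated 30 min, room temperature, in Bicine pH 7.6 buffer with TCEP, BSG, Tween 20 and 2% DMSO. Stopped with excess cold SAM (400 uM); IC50 from % inhibition, min control 1 mM SAH.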

[2] = molecular target: full-length human PRMT1 isoform 1 (GST-tagged) (Homo sapiens, UniProt Q99873); assay: PRMT1 Biochemical Assay (3H-SAM Flashplate, peptide substrate)
Chain of full-length human PRMT1 isoform 1 (GST-tagged) (Q99873 with tags, fused parts or gaps): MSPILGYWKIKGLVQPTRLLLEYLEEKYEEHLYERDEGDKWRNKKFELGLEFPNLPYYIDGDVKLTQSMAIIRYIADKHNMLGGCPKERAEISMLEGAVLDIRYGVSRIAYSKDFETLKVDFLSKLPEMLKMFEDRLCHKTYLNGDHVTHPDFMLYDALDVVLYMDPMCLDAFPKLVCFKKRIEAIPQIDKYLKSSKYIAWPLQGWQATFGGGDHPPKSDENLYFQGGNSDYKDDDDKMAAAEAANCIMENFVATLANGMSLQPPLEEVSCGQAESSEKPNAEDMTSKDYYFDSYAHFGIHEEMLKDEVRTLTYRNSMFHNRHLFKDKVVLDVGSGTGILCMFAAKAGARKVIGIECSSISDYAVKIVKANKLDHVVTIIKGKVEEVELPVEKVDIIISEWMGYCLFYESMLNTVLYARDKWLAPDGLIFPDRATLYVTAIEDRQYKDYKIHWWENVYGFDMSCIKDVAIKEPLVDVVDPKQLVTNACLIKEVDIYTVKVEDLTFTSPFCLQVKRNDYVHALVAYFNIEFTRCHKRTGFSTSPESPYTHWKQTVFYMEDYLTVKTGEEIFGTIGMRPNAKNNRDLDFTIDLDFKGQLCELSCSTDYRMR
Summary of the method: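 Tritiated methyl transfer from 3H-SAM onto biotinylated peptide, captured on streptavidin Flashplates and counted. Baculovirus-expressed GST-PRMT1 and compound were preincubated 30 min at room temperature in Bicine buffer pH 7.6. Cold SAM at 300 uM final ended the reaction.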

[3] = single experiment or average of multiple experiments

Chain of full-length human PRMT8 isoform 1 (Q9NR22 whole entry, canonical isoform): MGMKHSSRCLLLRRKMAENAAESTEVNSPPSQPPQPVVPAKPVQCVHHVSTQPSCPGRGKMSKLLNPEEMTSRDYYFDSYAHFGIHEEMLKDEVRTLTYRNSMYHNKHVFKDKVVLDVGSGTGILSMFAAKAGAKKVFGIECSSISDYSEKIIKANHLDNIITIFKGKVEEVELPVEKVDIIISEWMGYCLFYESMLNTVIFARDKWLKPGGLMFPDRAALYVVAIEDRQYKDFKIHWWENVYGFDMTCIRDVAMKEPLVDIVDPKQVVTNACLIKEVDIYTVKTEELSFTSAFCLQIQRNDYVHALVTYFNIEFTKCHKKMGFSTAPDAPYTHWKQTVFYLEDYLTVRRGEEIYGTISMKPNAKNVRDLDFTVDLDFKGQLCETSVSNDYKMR

IC50 [1] [nM] | IC50 [1, 3] [nM] | IC50 [2] [nM] | IC50 [2, 3] [nM] | Compound
< 100 | 83.3 | < 100 | 42.2 | CNCCN(C)Cc1c[nH]nc1[C@H]1CC[C@@H](N(CCC(C)C)C(=O)CCCOC)CC1 [Compound 237]
< 100 | 10.8 | < 100 | 7.59 | CNCCN(C)Cc1c[nH]nc1[C@H]1CC[C@H](C(=O)N(C)CCOc2ccccc2)CC1 [Compound 258]
< 100 | 44 | < 100 | 25.7 | CNCCN(C)Cc1c[nH]nc1[C@H]1CC[C@@H](N(CCC(C)C)C(=O)CCOC)CC1 [Compound 235]
< 100 | 51.5 | < 100 | 30.9 | CNCCN(C)Cc1c[nH]nc1[C@H]1CC[C@H](N(CCOC)C(=O)CC(C)C)CC1 [Compound 252]
< 100 | 20.7 | < 100 | 13.1 | CCN(C(=O)CCC(C)C)[C@H]1CC[C@@H](c2n[nH]cc2CN(C)CCNC)CC1 [Compound 251]
< 100 | 67 | < 100 | 41.7 | CNCCN(C)Cc1c[nH]nc1[C@H]1CC[C@@H](N(CCOc2ccccc2)C(=O)CCOC)CC1 [Compound 218]
< 100 | 100 | < 100 | 69 | CNCCN(C)Cc1c[nH]nc1[C@H]1CC[C@@H](N(CCOc2ccccc2)C(=O)CCCOC)CC1 [Compound 228]
< 100 | 17.1 | < 100 | 15.8 | CNCCN(C)Cc1c[nH]nc1[C@H]1CC[C@@H](C(=O)N(C)CCOc2ccccc2)CC1 [Compound 259]
< 100 | 9.32 | < 100 | 6.49 | CNCCN(C)Cc1c[nH]nc1[C@H]1CC[C@@H](N(CC(C)C)C(=O)CCOc2ccccc2)CC1 [Compound 231]

Further lines, the compound ahead of its results:

Compound | IC50 [1] [nM] | IC50 [1, 3] [nM] | IC50 [2] [nM] | IC50 [2, 3] [nM]
CNCCN(C)Cc1c[nH]nc1C1CCC(C)(C)[C@H](C(=O)NCCCOC)C1 (stereo partly drawn) [Compound 265] | 101 to 1000 | 171 | < 100 | 58.8
CCOC[C@H]1CC(c2n[nH]cc2CN(C)CCNC)C[C@H](COCC)C1 (stereo partly drawn) [Compound 188] | 1010 to 3000 | 1540 | 101 to 1000 | 275
CCOC[C@@H]1C[C@H](COCC)C[C@H](c2n[nH]cc2CN(C)CCNC)C1 [Compound 189] | 101 to 1000 | 478 | 101 to 1000 | 108
CNCCN(C)Cc1cnn(C)c1[C@H]1CC[C@@]2(CC1)CC(C)(C)CO2 [Compound 245, Methyl ([2-[methyl([1-methyl-5-[(5S,8S)-3,3-dimethyl-1-oxaspiro[4.5]decan-8-yl]-1H-pyrazol-4-yl]methyl)amino]ethyl])amine trifluoroacetic acid salt] | < 100 | 18.3 | < 100 | 18.5
CNCCN(C)Cc1c[nH]nc1[C@H]1CC[C@H](N(CC(C)C)C(=O)CC2CCOCC2)CC1 [Compound 193] | < 100 | 68.8 | < 100 | 28.4
CNCCN(C)Cc1c[nH]nc1[C@H]1CC[C@H](C(=O)N(C)CCC(C)C)CC1 [Compound 209] | < 100 | 43.9 | < 100 | 27.8
CNCCN(C)Cc1c[nH]nc1[C@H]1CC[C@H](C(=O)N(CCCOC)CCC(C)C)CC1 [Compound 213] | 101 to 1000 | 165 | < 100 | 53.9
CNCCN(C)Cc1c[nH]nc1[C@H]1CC[C@H](N(CC2CCOCC2)C(=O)CC(C)C)CC1 [Compound 192] | 101 to 1000 | 459 | 101 to 1000 | 216
CNCCN(C)Cc1c[nH]nc1C1CCC(C)(C)[C@@H](C(=O)NCCC(C)C)C1 (stereo partly drawn) [Compound 263, (1S)-2,2-dimethyl-5-[4-({methyl[2-(methylamino)ethyl]amino}methyl)-1H-pyrazol-3-yl]-N-(3-methylbutyl)cyclohexane-1-carboxamide] | < 100 | 35.1 | < 100 | 19.2
CNCCN(C)Cc1c[nH]nc1C1CCC2(CCCC2)OC1 (stereo not drawn) [Compound 199] | < 100 | 38.3 | < 100 | 16.8
CNCCN(C)Cc1c[nH]nc1C1CCC(C)(C)[C@@H](C(=O)NCC(C)C)C1 (stereo partly drawn) [Compound 266] | < 100 | 63.1 | < 100 | 19.3
CNCCN(C)Cc1c[nH]nc1C1CCC(C)(C)[C@H](C(=O)OC)C1 (stereo partly drawn) [Compound 256] | < 100 | 44 | < 100 | 23.7
